# Several values for one entry are separate records, joined by “and”; a condition that tells them apart may be missing. Identical values can stand only once.
# Tests used:
# [1] = Plasma concentrations of GM and HM-1/2 by LC-MS/MS after intravenous GM injection; format: in vivo, rat
# Description: GM (5 mg/kg) or vehicle (70% DMSO; 0.6 mL/kg) was injected into the tail vein of rats fasted for approximately 16 h. […] Blood samples were centrifuged at 1,700 × g and 4 °C for 15 min to obtain the plasma. The brain of each animal was immediately removed and weighed after blood collection and frozen with liquid nitrogen. On the day of analysis, frozen plasma from GM-treated rats was thawed at room temperature, and 25 µL of the plasma was mixed with equal volumes of methanol and an IS vincamine (1 ng/mL) and 150 μL of ethyl acetate. To prepare the calibration curve, blank plasma and various concentrations of working solution (final plasma concentration: 0.08–2 µg/mL) were used instead of methanol and GM-treated plasma. The mixture was centrifuged at 7,000 × g and 4 °C for 5 min. The supernatant was dried under a stream of nitrogen gas. The dried residue was dissolved in 60 μL of the initial mobile phase of LC, and then, a 5-μL aliquot was injected into the LC-MS/MS system composed of an Agilent 1290 LC (Agilent Technologies, Santa Clara, CA, USA) and a TripleQuad6500 MS/MS (SCIEX, Framingham, MA, USA) for measuring GM and its hydroxylated forms. The analytical conditions for LC-MS/MS were set according to previously reported methods with minor modifications[10],[15]. The protonated ions ([M + H]^+) of GM (m/z 367.0), HM-1/2 isomers (m/z 383.3), and vincamine (m/z 355.3) in Q1 (the first MS) or their specific fragment ions (GM: m/z 144.1, HM-1/2 isomers: m/z 160.2, vincamine: m/z 337.1) in Q3 (the second MS) were selected and detected by SRM using positive ion mode. Although a qualifier ion was not monitored in their analysis, the specificities of GM, HM-1/2 and vincamine in rat plasma were already confirmed by previous studies[10],[14]. The calibration curve for quantification of plasma GM concentrations was prepared using Analyst software (version 1.6.2, AB SCIEX). The plasma concentrations of HM-1/2 were expressed as relative peak area ratios of vincamine (IS) because there are currently no standard products for measuring these compounds.
# [2] = Brain distribution by DESI-MSI analysis after intravenous GM injection; format: in vivo, rat; conditions: for concentration at 0.25 h: rat, intravenous, 5 mg/kg
# Description: GM (5 mg/kg) or vehicle (70% DMSO; 0.6 mL/kg) was injected into the tail vein of rats fasted for approximately 16 h. […] Blood samples were centrifuged at 1,700 × g and 4 °C for 15 min to obtain the plasma. The brain of each animal was immediately removed and weighed after blood collection and frozen with liquid nitrogen. The frozen brains were used for making serial sagittal thin sliced sections (thickness 25 μm, coordinate: approximately 3.4 mm lateral from the bregma) using a […][…] cryostat (Leica Microsystems, […], Germany). Some of the serial sections mounted on conventional glass slides were used for H&E staining to confirm the location of the brain region in the slice. In MALDI-MSI analysis, some sections were mounted on indium tin oxide-coated slides ([…]., Osaka, Japan) based on previous reports[35],[36] to obtain higher sensitivity. In […] analysis, some sections were mounted on conventional glass slides. These tissue sections mounted on the slides were dried in a desiccator at room temperature for 10 min for MALDI-MSI analysis or 1 h for […] analysis. In the […] analysis, the MS/MS analysis was further performed to identify the signals of GM or its hydroxylated metabolite. The MS and MS/MS analyses for […] were performed using a Xevo G2-XS Q-Tof system (Waters, Milford, MA, USA) with an Omni Spray Ion Source 2-D (Prosolia, Indianapolis, IN, USA). In both analyses, methanol/water (98:2)solution was flowed into a capillary at a 2 μL/min flow rate. The nebulizing gas pressure was set to 0.4 MPa, the capillary voltage to 5 kV, the source temperature to 100 °C, the sampling cone to 30 V, and the scan time to 0.986 sec. In the MS analysis, the collision energy was set to 4 eV, and mass spectra were acquired in target enhancement mode, which was set to m/z 367.2. In the MS/MS analysis, the collision energy was set to 20 eV, and mass spectra were acquired in target enhancement mode, which was set to m/z 144.2. Mass resolution and spatial resolution were >20,000 and 200 μm in the MS and MS/MS analyses. The protonated ions of GM ([M + H]^+: m/z 367.2) and HM ([M + H]^+: m/z 383.2) in MS and the specific fragment ions of GM (m/z 144.2) and HM (m/z 160.2) in MS/MS were detected in positive ion mode. The intensities of GM and HM detected in the DESI-MS analysis were visualized using high-definition imaging (HDI) software (Waters, Milford, MA, USA). Normal intact brains were homogenized without adding a solvent using a T-10 basic Ultra-Turrax homogenizer (IKA, Staufen, Germany) to prepare a tissue-based calibration curve for quantifying GM. For brain homogenates, various concentrations of standard GM solution (final concentration: 6.25, 12.5, and 25.0 μg/g brain) or vehicle (methanol) as a control were added and rapidly frozen. Frozen sections (thickness 25 μm) of the homogenates spiked with standard GM were made using a […][…] cryostat (Leica Microsystems). Regional intensities of GM (m/z 367.2) and a standard endogenous molecule (m/z 366.95) in brain tissue slices and homogenate slices were evaluated by the region of interest analysis using HDI software (Waters). The GM signal intensity was expressed as the average of the relative intensity ratio to the standard endogenous molecule per […] contained in the region of interest. The regional brain concentration of GM was calculated using the tissue-based calibration curve (Fig. 3D-2).
# [3] = Brain distribution by MALDI-MSI analysis after intravenous GM injection; format: in vivo, rat; conditions: 0.25 h after 5 mg/kg GM i.v., sagittal sections
# Description: GM (5 mg/kg) or vehicle (70% DMSO; 0.6 mL/kg) was injected into the tail vein of rats fasted for approximately 16 h. […] Blood samples were centrifuged at 1,700 × g and 4 °C for 15 min to obtain the plasma. The brain of each animal was immediately removed and weighed after blood collection and frozen with liquid nitrogen.
# The frozen brains were used for making serial sagittal thin sliced sections (thickness 25 μm, coordinate: approximately 3.4 mm lateral from the bregma) using a Leica CM3050S cryostat (Leica Microsystems, Wetzlar, Germany). Some of the serial sections mounted on conventional glass slides were used for H&E staining to confirm the location of the brain region in the slice. […]
# The MALDI-MSI analysis was performed on brain slice specimens sprayed with a matrix solution (40 mg/mL 2,5-dihydroxybenzoic acid) dissolved in 50% methanol using a TM-sprayer (HTX Technologies, Chapel Hill, NC, USA). […] The targeted protonated molecule GM ([M + H]^+: m/z 367.2) was detected in positive ion mode under a laser power setting of 70%, 500 laser shots, and the continuous accumulation of selected ions mode set to ON at m/z 360 ± 50. […] GM intensity detected by the MALDI-MS analysis was visualized using FlexImaging software (Bruker Daltonics).
# [4] = set-up: method as in PMID 23813572, PMID 30741064; conditions: plasma and brain, after oral YKS administration to rats; cited from earlier work
# [5] = set-up: method as in PMID 21442303; conditions: cultured cells; cited from earlier work
# normal rat brain slices = tested on: normal rat brain slices; set-up: method as in PMID 25456433, PMID 28377723; conditions: [^3H]GM directly exposed to normal rat brain slices; cited from earlier work
# [6] = Amygdala, 0.25 h, individual animals
# [7] = Cerebellum, 0.25 h, individual animals
# [8] = Fourth ventricle, 0.25 h, individual animals
# [9] = Frontal lobe, 0.25 h, individual animals
# [10] = Hippocampus, 0.25 h, individual animals
# [11] = Lateral ventricle, 0.25 h, individual animals
# [12] = Occipital lobe, 0.25 h, individual animals
# [13] = Striatum, 0.25 h, individual animals
# [14] = Thalamus, 0.25 h, individual animals
smiles,measurement,setting,value
"CC=C1CN2CCc3c([nH]c4ccccc34)C2CC1C(=COC)C(=O)OC (stereo not shown) [GM, Geissoschizine methyl ether]",time course of plasma GM concentration,"[1]; 0.25-4 h after 5 mg/kg GM i.v., rat",rapidly decreased in a time-dependent manner over 4 h
same,plasma concentration relative to maximum concentration after oral YKS,[1]; 0.25 h after 5 mg/kg GM i.v. vs maximum concentration 1 h after oral 1 g/kg YKS,approximately 500 times
same,distribution volume,"[1]; one-compartment analysis, 5 mg/kg GM i.v., rat",4.4 L/kg
same,concentration at 0.25 h,"[1]; plasma, iv, 0.25 h postinjection, 5 mg/kg GM i.v., rat",1070 ng/mL
same,half-life,"[1]; plasma, iv, one-compartment analysis, 5 mg/kg GM i.v., rat, read-out: apparent elimination half-life (converted)",108 min
same,k el,"[1]; plasma, iv, one-compartment analysis, 5 mg/kg GM i.v., rat, read-out: elimination rate constant (converted)",0.000111 s⁻¹
same,clearance,"[1]; plasma, iv, one-compartment analysis, 5 mg/kg GM i.v., rat, read-out: total clearance (converted)",28.3 mL/min/kg
same,"GM ion signal in brain, DESI-MSI image","[2]; 0.25 h after 5 mg/kg GM i.v., sagittal sections",a diffuse GM ion signal was observed throughout the brain parenchyma
same,Calculated GM concentration,[2]; [6],1.0 µg/g and 2.2 µg/g and 1.2 µg/g
same,Ion intensity of GM per pixel in ROI,[2]; [6],2.4 ×10^4 and 3.7 ×10^4 and 9.7 ×10^4
same,Ratio of GM/endogenous standard molecule,[2]; [6],0.8 and 1.8 and 1.0
same,Calculated GM concentration,[2]; [7],0.8 µg/g and 2.0 µg/g and 1.1 µg/g
same,Ion intensity of GM per pixel in ROI,[2]; [7],4.2 ×10^4 and 2.4 ×10^4 and 8.7 ×10^4
same,Ratio of GM/endogenous standard molecule,[2]; [7],0.7 and 1.7 and 0.9
same,GM intensity in the parenchyma,"[2]; DESI-MSI, 1 and 4 h after 5 mg/kg GM i.v.",almost disappeared
same,intracerebroventricular GM intensity,"[2]; DESI-MSI, 0.25 h, also detected at 1 and 4 h",higher than the intensity in other parenchymal areas
same,Calculated GM concentration,[2]; [8],2.3 µg/g and 2.0 µg/g
same,Ion intensity of GM per pixel in ROI,[2]; [8],4.0 ×10^4 and 3.9 ×10^4 and 26.5 ×10^4
same,Ratio of GM/endogenous standard molecule,[2]; [8],1.0 and 1.9 and 1.7
same,Calculated GM concentration,[2]; [9],1.0 µg/g and 2.6 µg/g and 1.2 µg/g
same,Ion intensity of GM per pixel in ROI,[2]; [9],2.9 ×10^4 and 5.4 ×10^4 and 9.1 ×10^4
same,Ratio of GM/endogenous standard molecule,[2]; [9],0.8 and 2.2 and 1.0
same,Calculated GM concentration,[2]; [10],2.3 µg/g and 1.1 µg/g and 0.8 µg/g
same,Ion intensity of GM per pixel in ROI,[2]; [10],4.7 ×10^4 and 10 ×10^4 and 2.0 ×10^4
same,Ratio of GM/endogenous standard molecule,[2]; [10],1.9 and 0.9 and 0.7
same,Calculated GM concentration,[2]; [11],1.4 µg/g and 4.5 µg/g and 2.9 µg/g
same,Ion intensity of GM per pixel in ROI,[2]; [11],3.0 ×10^4 and 8.3 ×10^4 and 21.2 ×10^4
same,Ratio of GM/endogenous standard molecule,[2]; [11],1.2 and 3.8 and 2.4
same,Calculated GM concentration,[2]; [12],1.1 µg/g and 2.7 µg/g and 1.3 µg/g
same,Ion intensity of GM per pixel in ROI,[2]; [12],2.9 ×10^4 and 4.8 ×10^4 and 10.5 ×10^4
same,Ratio of GM/endogenous standard molecule,[2]; [12],0.9 and 2.3 and 1.1
same,Calculated GM concentration,[2]; [13],0.8 µg/g and 2.6 µg/g and 1.1 µg/g
same,Ion intensity of GM per pixel in ROI,[2]; [13],1.9 ×10^4 and 3.9 ×10^4 and 7.2 ×10^4
same,Ratio of GM/endogenous standard molecule,[2]; [13],0.7 and 2.2 and 0.9
same,Calculated GM concentration,[2]; [14],0.7 µg/g and 2.4 µg/g and 1.1 µg/g
same,Ion intensity of GM per pixel in ROI,[2]; [14],1.7 ×10^4 and 4.5 ×10^4 and 8.8 ×10^4
same,Ratio of GM/endogenous standard molecule,[2]; [14],0.6 and 2.0 and 0.9
same,concentration at 0.25 h,"[2]; brain (fourth ventricle), Fourth ventricle, 0.25 h, individual animals, read-out: Calculated GM concentration",1200 ng/g
same,concentration at 0.25 h,"[2]; 0.25 h after 5 mg/kg GM i.v., cerebral cortex, hippocampus, striatum, amygdala, thalamus, cerebellum, lateral ventricle, read-out: regional brain GM concentration range",1300 to 2900 ng/g
same,"GM ion signal in brain, MALDI-MSI image",[3],a diffuse GM ion signal was observed throughout the brain parenchyma
same,tmax,[4],30 min
same,BBB permeability,[5],comparatively high
same,binding to brain slices,normal rat brain slices,specifically bound to various regions appearing on the surface of brain slices

# From publication PMC7190722, “Brain distribution of geissoschizine methyl ether in rats using mass spectrometry imaging analysis” (Scientific Reports, 2020)
